From patent publication US20080226758A1, “Lipoxygenase and Cyclooxygenase Inhibition” (priority 2006, published 2008)
Where “and” joins values, the source holds several entries; their conditions need not be identical. Identical values can stand only once.

Legend:
Assay type in all cases: biochemical
15-LO = molecular target: T1, 15-LO (Oryctolagus cuniculus, UniProt P12530); assay: 15-LO assay (13-HPODE, spectrophotometric); settings: rabbit reticulocytes; 13-HPODE spectrophotometrically
T1 construct: endogenous in cells; host or cells: rabbit reticulocytes
T1 sequence (P12530 1-663): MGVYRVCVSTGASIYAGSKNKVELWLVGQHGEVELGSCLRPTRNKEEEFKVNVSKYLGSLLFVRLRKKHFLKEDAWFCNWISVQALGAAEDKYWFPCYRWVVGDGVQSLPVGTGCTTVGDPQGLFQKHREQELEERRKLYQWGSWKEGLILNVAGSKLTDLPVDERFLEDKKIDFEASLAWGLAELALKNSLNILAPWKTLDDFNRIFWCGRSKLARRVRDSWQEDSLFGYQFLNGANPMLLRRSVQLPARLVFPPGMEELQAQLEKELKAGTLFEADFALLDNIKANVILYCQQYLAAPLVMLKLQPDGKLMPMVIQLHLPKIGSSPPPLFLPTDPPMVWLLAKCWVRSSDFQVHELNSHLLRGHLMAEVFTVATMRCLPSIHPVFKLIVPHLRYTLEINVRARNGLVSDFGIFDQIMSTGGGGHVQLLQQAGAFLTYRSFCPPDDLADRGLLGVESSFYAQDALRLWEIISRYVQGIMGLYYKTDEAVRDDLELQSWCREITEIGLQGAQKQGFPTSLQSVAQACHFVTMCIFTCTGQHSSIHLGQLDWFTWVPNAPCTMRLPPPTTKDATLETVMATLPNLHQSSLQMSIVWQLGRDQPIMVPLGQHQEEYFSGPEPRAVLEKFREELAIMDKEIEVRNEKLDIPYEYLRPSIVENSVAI
Method: (§1) 5-LO and 15-LO assays: Human peripheral blood mononuclear cells (PBMC) cells and rabbits reticulocytes were used in the 5-LO and 15-LO bioassays, and the assays were conducted according to the protocols reported previously, with either linoleic acid or arachidonic acid as substrates. LO activity was measured by quantifying immunodetectable Leukotriene B4 (LTB4) specifically with enzyme immunoassay (EIA) in the 5-LO assay, or monitoring 13-hydroperoxy-9,11-octadecadienoic acid (13-HPODE) spectrophotometrically in the 15-LO assay.
(§2) The results were expressed as either percentage inhibition, or IC50, for test samples and data represent the average ±SD of at least triplicate determinations.

Human recombinant COX-2 = molecular target: T2, Human recombinant COX-2 (Homo sapiens, UniProt P35354); assay: COX-2 inhibition assay (PGE2 EIA); settings: human recombinant COX-2 expressed in Sf21 cells; 0.3 μM arachidonic acid
T2 construct: purchased Sigma C-0858; host or cells: insect Sf21 cells
T2 sequence (P35354 18-604): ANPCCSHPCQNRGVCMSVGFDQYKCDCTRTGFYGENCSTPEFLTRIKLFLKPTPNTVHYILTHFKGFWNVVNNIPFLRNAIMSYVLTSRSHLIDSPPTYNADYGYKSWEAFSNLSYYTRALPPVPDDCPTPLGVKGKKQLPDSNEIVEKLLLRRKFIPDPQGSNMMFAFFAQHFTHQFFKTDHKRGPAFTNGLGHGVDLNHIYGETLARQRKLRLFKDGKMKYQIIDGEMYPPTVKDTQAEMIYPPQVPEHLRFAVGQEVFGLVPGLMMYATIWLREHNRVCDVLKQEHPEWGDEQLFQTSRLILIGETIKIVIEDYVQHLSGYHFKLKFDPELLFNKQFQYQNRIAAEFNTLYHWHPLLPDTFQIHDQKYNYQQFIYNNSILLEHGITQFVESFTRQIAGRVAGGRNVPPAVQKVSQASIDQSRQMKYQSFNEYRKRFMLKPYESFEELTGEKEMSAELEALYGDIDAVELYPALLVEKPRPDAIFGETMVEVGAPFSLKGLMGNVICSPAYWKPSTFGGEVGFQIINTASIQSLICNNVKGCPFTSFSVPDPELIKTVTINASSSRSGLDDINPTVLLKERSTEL
Method: COX-1 and COX-2 assays: COX-1 and -2 Inhibition assays were performed by the methods described previously with minor modifications. COX-2 enzyme was purchased from Sigma (Catalog # C-0858), and the PGE2 EIA kit from Amersham (Catalog # RPN 220). Human recombinant COX-2, expressed in insect Sf21 cells, and human platelets, respectively, were used in the COX-2 and COX-1 assays. The extract and partitions were dissolved in DMSO (Sigma, USA), and tested at 100 μg/mL (final concentration). The pure compounds were initially tested at 30 μM. […] Test samples were preincubated with 0.12 μg/ml enzyme in modified Tris-HCl buffer pH 7.7 (COX-2), and with cells (5×10^7/ml), in modified HEPES buffer pH 7.4 (COX-1) for 15 minutes at 37° C. The reactions were initiated by addition of 0.3 μM arachidonic acid (COX-2), and 100 μM arachidonic acid (COX-1), respectively, for another 5-minute incubation period, then terminated by further addition of 1 N HCl. An aliquot was then combined with the EIA kit for spectrophotometric determination of the quantity of PGE2 formed.
as §2

5-LO = molecular target: T3, 5-LO (Homo sapiens, UniProt P09917); assay: 5-LO assay (LTB4 by EIA); settings: human PBMC
T3 construct: endogenous in cells; host or cells: human peripheral blood mononuclear cells (PBMC)
T3 sequence (P09917 1-674): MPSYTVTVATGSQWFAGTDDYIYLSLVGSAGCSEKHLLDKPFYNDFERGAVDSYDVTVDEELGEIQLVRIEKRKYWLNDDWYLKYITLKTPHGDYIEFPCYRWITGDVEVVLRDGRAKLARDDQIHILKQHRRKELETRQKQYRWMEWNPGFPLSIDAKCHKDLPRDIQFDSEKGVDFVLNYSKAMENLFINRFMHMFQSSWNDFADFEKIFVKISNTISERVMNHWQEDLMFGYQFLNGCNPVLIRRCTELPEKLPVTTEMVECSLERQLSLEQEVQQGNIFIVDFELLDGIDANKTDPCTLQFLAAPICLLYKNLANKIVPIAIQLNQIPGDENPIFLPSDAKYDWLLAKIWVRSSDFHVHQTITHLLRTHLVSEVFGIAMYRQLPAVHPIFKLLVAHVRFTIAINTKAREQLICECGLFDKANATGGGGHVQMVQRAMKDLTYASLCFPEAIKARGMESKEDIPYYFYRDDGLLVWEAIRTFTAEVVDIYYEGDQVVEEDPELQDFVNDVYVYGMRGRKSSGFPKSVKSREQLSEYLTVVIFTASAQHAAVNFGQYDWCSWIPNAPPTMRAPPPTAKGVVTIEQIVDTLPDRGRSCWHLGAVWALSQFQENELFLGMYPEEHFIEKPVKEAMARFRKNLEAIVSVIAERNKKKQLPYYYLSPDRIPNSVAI
Method: as §1, §2

SMILES	IC50 (15-LO) [µM]	IC50 (5-LO)	IC50 (Human recombinant COX-2) [µM]
O=C1OC(c2ccc(O)c(O)c2)C2COC(c3ccc(O)c(O)c3)C12 (single isomer, unassigned; (+)) [compound 1, (+)-3,4,3′,4′-tetrahydroxy-9,7′α-epoxylignano-7α,9′-lactone]	0.52	–	90.2
OCC1C(c2ccc(O)c(O)c2)OCC1C(O)c1ccc(O)c(O)c1 (single isomer, unassigned; (+)) [compound 2, (+)-3,3′-bisdemethyltanegool]	0.76	–	73.9
O=c1c(O)c(-c2ccc(O)c(O)c2)oc2cc(O)cc(O)c12 [compound 5, quercetin]	0.43	–	28.6

Further lines, with some results ahead:

IC50 (15-LO) [µM]	IC50 (5-LO)	SMILES	IC50 (Human recombinant COX-2) [µM]
0.52	–	Oc1ccc(C2OCC3C(c4ccc(O)c(O)c4)OCC23)cc1O (stereo not drawn) [compound 4, 3,3′-bisdemethylpinoresinol]	> 100
2.2	2.65 to 13.8 µM and 2.7 µM	O=c1c(O)c(-c2ccc(O)cc2)oc2cc(O)cc(O)c12 [compound 6, kaempferol]	–
16.5	–	COc1cc2ccc(=O)oc2cc1O [compound 7, scopoletin]	–
15.1	–	COc1cc2oc(=O)ccc2cc1O [compound 8, isoscopoletin]	–
